The structures appear in SMILES notation.

Data set [1] deals with Fasciola hepatica. The data set is described as follows: Fasciolicidal activity against Fasciola hepatica metacercariae infected in calves assessed as elimination of liver flukes at 15 mg/kg, po measured 8 weeks after infection. It is filed as functional. The settings on record: 1344 h.
Data set [2] has as its system Fasciola hepatica. The data set is described as follows: Fasciolicidal activity against Fasciola hepatica metacercariae infected in rat assessed as elimination of liver flukes at 3.1 mg/kg, po administered as single dose. Type of data set: functional.
The subject of the next data set is Ovis aries. The data set is described as follows: Toxicity in Fasciola hepatica metacercariae infected in sheep assessed as induction of gross toxic reactions at 200 to 400 mg/kg, po administered as single dose. The settings on record: in vivo. Type of data set: organism-based. On the set-up: dose 200-400 mg/kg, route oral.
For data set [3], the system named is Fasciola hepatica. The data set is described as follows: Fasciolicidal activity against Fasciola hepatica metacercariae infected in sheep assessed as elimination of liver flukes at 2.5 mg/kg, po measured 16 weeks after infection. Type of data set: functional. To be noted: 2688 h.
Data set [4] relates to Fasciola hepatica. The data set can be described thus: Fasciolicidal activity against Fasciola hepatica metacercariae infected in sheep assessed as elimination of liver flukes at 15 mg/kg, po measured 6 weeks after infection. The settings on record: 1008 h. It is filed as functional.
Data set [5] concerns Fasciola hepatica. The data set is described as follows: Fasciolicidal activity against Fasciola hepatica metacercariae infected in po dosed rat assessed as elimination of liver flukes administered as single dose. It is filed as functional. To be noted: read-out: MED.

As for `Nc1cc(C(Cl)=C(Cl)Cl)c(S(N)(=O)=O)cc1S(N)(=O)=O` [CLORSULON], the inhibition in vivo at 15 mg/kg in the data set with Fasciola hepatica [1] and in the data set on Fasciola hepatica [4] was > 90% each time. In addition, the inhibition in vivo at 3.1 mg/kg with Fasciola hepatica [2] was > 90%. Besides, in the data set with Ovis aries, the Activity result is recorded as “Non-toxic”. Also, the inhibition in vivo at 2.5 mg/kg in the data set on Fasciola hepatica [3] is 90%.

For the compound `O=C(Nc1ccc(Oc2ccc(Cl)cc2)c(Cl)c1)c1cc(I)cc(I)c1O` [RAFOXANIDE], the minimal effective dose in the data set on Fasciola hepatica [5] worked out at 3.1 mg/kg.
